Tests used:
[1] = test system: Kainic acid lesion in C57BL/6 mice; assay: Mouse model of acute neurodegeneration: kainic acid lesion volume; assay type: in vivo; conditions: KA 1.0 nmol i.s.; clotrimazole 2 mg/kg i.p. twice daily; vs KA+vehicle; P=0.010 (t test of difference in log[size]); two days after KA
Method: To test the hypothesis that clotrimazole may be neuroprotective against KA induced excitatory damage in the brain, clotrimazole was compared to benzamide as a positive control in the mouse model. Three study groups (n=8-9) were tested: (1) C57BL/6 treated with KA 1.0 nmol (i.s.) left hemisphere+vehicle (i.p.); (2) KA 1.0 nmol i.s. left hemisphere+clotrimazole (2mg/kg) i.p. twice daily for duration of the study (including a single dose 1 hour before KA); and (3) KA 1.0 nmol i.s. left hemisphere+benzamide (160 mg/kg, i.p. 30 min before injection and 3.5 hrs after). Kainic Acid (K0250), clotrimazole (C6019) and Benzamide (150762) were purchased from Sigma and prepared as followed: Kainic Acid was dissolved in phosphate buffered saline (1×PBS, pH 7.4), pH to 7.4 using NaOH. […]
Two days after injection of KA the animals were anesthetized and transcardially perfused with ice cold phosphate buffered saline (0.1 M PBS, pH 7.4) containing 10% sucrose and then perfused with ice-cold 4% paraformaldehyde in 0.1M PBS, pH 7.4. […] The area of the lesion, indicated by the lack of staining when compared to the contralateral (intact) striatum/cortex, was measured in each series of sections (n=25-30) blindly by means of an image analysis program and the lesion volume was calculated by a stereological method (Cavalieri's estimator of volume corrected for over projection).

R6/2 transgenic mice [2] = assay: Rotarod test in R6/2 transgenic mouse model of Huntington's disease; assay type: in vivo
Method: (§1) The rotarod test and body weight measurements were used to assess the therapeutic effects of clotrimazole in R6/2 transgenic mice. R6/2 and WT male mice at 4 weeks of age were trained 3 consecutive days on the accelerating rotarod. Each training day consisted of four sessions. After the training was complete, the animals were reassigned to new groups to create statistically homogenous cohorts. At 5 weeks of age, animals (n=10 per group) were dosed twice daily, intraperitoneally (IP) with clotrimazole at either 2 mg/kg or 10 mg/kg (equal to 4 and 20 mg/kg per day). Rotarod testing was performed at 6, 8, 10, and 12 weeks of age as described above. Body weights were collected every week.

R6/2 transgenic mice [3] = assay: Body weight in R6/2 transgenic mouse model of Huntington's disease; assay type: in vivo
Method: as §1

R6/2 mice [4] = assay: Cage climbing and rearing in R6/2 mice; assay type: in vivo, mouse; conditions: for Cage climbing: 12 weeks
Excerpt: Cage climbing analysis involves filming a 10cm tall cylindrical cage into which an R6/2 (+/−drug) or WT mouse is placed. The mouse is allowed to move naturally ad libetum for a five minute session within the confines of the cage, while events such as rearing occurrences, climbing time and latency to climb are documented. Cage climbing and rearing data were collected at 12 weeks in this study.

R6/2 mice [5] = assay: Gait analysis (DigiGait) in R6/2 mice; assay type: in vivo, mouse
Excerpt: Gait analysis was also collected at 12 weeks, which is a time when clear differences have previously been described between R6/2 and wild-type. In this analysis, the DigiGait™ Imaging System, which is non-invasive, robust, and quantitative—in that it generates numerous indices of gait dynamics and posture—was used. The system simplifies kinematic observations and analyses by imaging the animals from below a transparent treadmill. Software, including artificial intelligence algorithms, quantifies the characteristics of gait, including step sequence patterns, stride length, cadence, and paw placement. The output also includes swing and stance durations, as well as braking and propulsion durations. Indices computed by DigiGait convey information about sensory and motor inputs modulating gait and gait variability.

microglia activation = conditions: has been shown; no source given; cited from earlier work
[6] = cited from earlier work
[7] = 4 and 20 mg/kg dosing, preliminary data

With `Clc1ccccc1C(c1ccccc1)(c1ccccc1)n1ccnc1` [clotrimazole] the Lesion volume [1] was “statistically significant improvement”, the Rotarod effect (R6/2 transgenic mice [2]; 20 mg/kg/day IP-BID, any time point tested (6, 8, 10, 12 weeks of age)) was “did not have a statistically significant effect” and the “Rotarod effect vs vehicle-treated R6/2 animals” value (R6/2 transgenic mice [2]; at the higher dose as printed, P=0.01 (Wilcoxon test)) was “statistically-significant effect”. The “Behavior in vivo (rotarod)” value (R6/2 transgenic mice [2]; low dose of 4 mg/kg/day (2 mg/kg IP twice daily), preliminary data) was “positively affects”, the “Body weight compared to vehicle-treated R6/2 mice” value (R6/2 transgenic mice [3]; 4 mg/kg IP-BID, 12 week of age, F test ANOVA) was “maintained a higher body weight” and the Body weight effect (R6/2 transgenic mice [3]; 20 mg/kg IP-BID, any time point tested) was “did not have a statistically significant effect”. The Weight in vivo (R6/2 transgenic mice [3]; low dose of 4 mg/kg/day, preliminary data) was “positively affects”, the Cage climbing (R6/2 mice [4]; 4 mg/kg (low dose)) was “Statistically significant improvement” and the Cage climbing (R6/2 mice [4]; 20 mg/kg (high dose)) was “Statistically significant improvement”. For the same compound, the “Motor performance by cage climbing and rearing” value (R6/2 mice [4]; [7]) was “significantly improved the motor performance”, the “Motor performance by gait analysis” value (R6/2 mice [5]; [7]) was “significantly improved the motor performance” and the Swing ratio score (R6/2 mice [5]; gait analysis at 12 weeks) was “significantly improved”. For the same compound, the “Inhibition of microglia activation” value (microglia activation) was “potent inhibitor” and the “Known side effects in humans” value [6] was “lethargy, apathy, and weakness”.
